Measured values taken from patent US10238670B2, “9-aminomethyl minocycline compounds and methods of use thereof in urinary tract infection (UTI) treatment” (Paratek Pharmaceuticals, Inc., priority 2016, dated 2019).
Values after ≈ are worked out from the molar mass of the structure shown. Like-named read-outs stand apart in the source and are kept apart here.

How the values were obtained:
Test in all cases: In vitro MIC, 2010 surveillance isolates
MR CoNS = assay type: cell-based, Coagulase-Negative Staphylococcus
K. oxytoca = assay type: cell-based
E. faecium VNS = assay type: cell-based
K. pneumoniae ESBL+ = assay type: cell-based, Klebsiella pneumoniae
E. faecalis VS = assay type: cell-based
E. faecium VS = assay type: cell-based
E. cloacae CeftazS = assay type: cell-based
E. coli ESBL− = assay type: cell-based, Escherichia coli
K. pneumoniae ESBL− = assay type: cell-based, Klebsiella pneumoniae
E. cloacae CeftazR = assay type: cell-based
MSSA = assay type: cell-based
A. baumanii = assay type: cell-based
MRSA = assay type: cell-based
E. faecalis VNS = assay type: cell-based
Acinetobacter spp = assay type: cell-based; conditions: for % R (resistance): CLSI breakpoints
MS CoNS = assay type: cell-based, Coagulase-Negative Staphylococcus
Enterobacter spp = assay type: cell-based
E. coli ESBL+ = assay type: cell-based, Escherichia coli

## CO/N=C(\C(=O)N[C@@H]1C(=O)N2C(C(=O)O)=C(CSc3nc(=O)c(=O)[nH]n3C)CS[C@H]12)c1csc(N)n1 [Ceftriaxone]
MR CoNS; Asia/Pac, Eucast breakpoints
  % R (resistance): 100%
MR CoNS; Asia/Pac, N=77
  MIC90: > 8 µg/mL
MR CoNS; Europe, Eucast breakpoints
  % R (resistance): 100%
MR CoNS; Europe, N=510
  MIC90: > 8 µg/mL
MR CoNS; L. Amer, CLSI breakpoints
  % R (resistance): 100%
MR CoNS; L. Amer, N=301
  MIC90: > 8 µg/mL
MR CoNS; N America, CLSI breakpoints
  % R (resistance): 100%
MR CoNS; N America, N=461
  MIC90: > 8 µg/mL
K. oxytoca; Asia/Pac, Eucast breakpoints
  % R (resistance): 29.4%
K. oxytoca; Asia/Pac, N=17
  MIC90: > 8 µg/mL
K. oxytoca; Europe, Eucast breakpoints
  % R (resistance): 17.7%
K. oxytoca; Europe, N=158
  MIC90: > 8 µg/mL
K. oxytoca; L. Amer, CLSI breakpoints
  % R (resistance): 40%
K. oxytoca; L. Amer, N=25
  MIC90: > 8 µg/mL
K. oxytoca; N America, CLSI breakpoints
  % R (resistance): 10.2%
K. oxytoca; N America, N=177
  MIC90: 4 µg/mL (≈ 7.21 µM)
E. faecium VNS; Asia/Pac, N=24
  MIC90: > 8 µg/mL
E. faecium VNS; Europe, N=71
  MIC90: > 8 µg/mL
E. faecium VNS; L. Amer, N=41
  MIC90: > 8 µg/mL
E. faecium VNS; N America, N=478
  MIC90: > 8 µg/mL
K. pneumoniae ESBL+; Asia/Pac, Eucast breakpoints
  % R (resistance): 93.5%
K. pneumoniae ESBL+; Asia/Pac, N=124
  MIC90: > 8 µg/mL
K. pneumoniae ESBL+; Europe, Eucast breakpoints
  % R (resistance): 94.7%
K. pneumoniae ESBL+; Europe, N=151
  MIC90: > 8 µg/mL
K. pneumoniae ESBL+; L. Amer, CLSI breakpoints
  % R (resistance): 99.5%
K. pneumoniae ESBL+; L. Amer, N=209
  MIC90: > 8 µg/mL
K. pneumoniae ESBL+; N America, CLSI breakpoints
  % R (resistance): 95.4%
K. pneumoniae ESBL+; N America, N=108
  MIC90: > 8 µg/mL
E. faecalis VS; Asia/Pac, N=214
  MIC90: > 8 µg/mL
E. faecalis VS; Europe, N=669
  MIC90: > 8 µg/mL
E. faecalis VS; L. Amer, N=290
  MIC90: > 8 µg/mL
E. faecalis VS; N America, N=863
  MIC90: > 8 µg/mL
E. faecium VS; Asia/Pac, N=106
  MIC90: > 8 µg/mL
E. faecium VS; Europe, N=303
  MIC90: > 8 µg/mL
E. faecium VS; L. Amer, N=51
  MIC90: > 8 µg/mL
E. faecium VS; N America, N=115
  MIC90: > 8 µg/mL
E. cloacae CeftazS; Asia/Pac, Eucast breakpoints
  % R (resistance): 5%
E. cloacae CeftazS; Asia/Pac, N=100
  MIC90: 2 µg/mL (≈ 3.61 µM)
E. cloacae CeftazS; Europe, Eucast breakpoints
  % R (resistance): 7.7%
E. cloacae CeftazS; Europe, N=183
  MIC90: 2 µg/mL (≈ 3.61 µM)
E. cloacae CeftazS; L. Amer, CLSI breakpoints
  % R (resistance): 24.6%
E. cloacae CeftazS; L. Amer, N=57
  MIC90: > 8 µg/mL
E. cloacae CeftazS; N America, CLSI breakpoints
  % R (resistance): 3.3%
E. cloacae CeftazS; N America, N=210
  MIC90: 1 µg/mL (≈ 1.8 µM)
E. coli ESBL−; Asia/Pac, Eucast breakpoints
  % R (resistance): 0%
E. coli ESBL−; Asia/Pac, N=282
  MIC90: 0.12 µg/mL (≈ 0.216 µM)
E. coli ESBL−; Europe, Eucast breakpoints
  % R (resistance): 0%
E. coli ESBL−; Europe, N=1533
  MIC90: 0.12 µg/mL (≈ 0.216 µM)
E. coli ESBL−; L. Amer, CLSI breakpoints
  % R (resistance): 0%
E. coli ESBL−; L. Amer, N=389
  MIC90: 0.12 µg/mL (≈ 0.216 µM)
E. coli ESBL−; N America, CLSI breakpoints
  % R (resistance): 0%
E. coli ESBL−; N America, N=1172
  MIC90: 0.12 µg/mL (≈ 0.216 µM)
K. pneumoniae ESBL−; Asia/Pac, Eucast breakpoints
  % R (resistance): 0%
K. pneumoniae ESBL−; Asia/Pac, N=189
  MIC90: 0.12 µg/mL (≈ 0.216 µM)
K. pneumoniae ESBL−; Europe, Eucast breakpoints
  % R (resistance): 0%
K. pneumoniae ESBL−; Europe, N=361
  MIC90: 0.12 µg/mL (≈ 0.216 µM)
K. pneumoniae ESBL−; L. Amer, CLSI breakpoints
  % R (resistance): 0%
K. pneumoniae ESBL−; L. Amer, N=160
  MIC90: 0.12 µg/mL (≈ 0.216 µM)
K. pneumoniae ESBL−; N America, CLSI breakpoints
  % R (resistance): 0%
K. pneumoniae ESBL−; N America, N=671
  MIC90: 0.12 µg/mL (≈ 0.216 µM)
E. cloacae CeftazR; Asia/Pac, Eucast breakpoints
  % R (resistance): 100%
E. cloacae CeftazR; Asia/Pac, N=63
  MIC90: > 8 µg/mL
E. cloacae CeftazR; Europe, Eucast breakpoints
  % R (resistance): 100%
E. cloacae CeftazR; Europe, N=72
  MIC90: > 8 µg/mL
E. cloacae CeftazR; L. Amer, CLSI breakpoints
  % R (resistance): 100%
E. cloacae CeftazR; L. Amer, N=42
  MIC90: > 8 µg/mL
E. cloacae CeftazR; N America, CLSI breakpoints
  % R (resistance): 100%
E. cloacae CeftazR; N America, N=77
  MIC90: > 8 µg/mL
MSSA; Asia/Pac, Eucast breakpoints
  % R (resistance): 0%
MSSA; Asia/Pac, N=641
  MIC90: 4 µg/mL (≈ 7.21 µM)
MSSA; Europe, Eucast breakpoints
  % R (resistance): 0%
MSSA; Europe, N=2109
  MIC90: 4 µg/mL (≈ 7.21 µM)
MSSA; L. Amer, CLSI breakpoints
  % R (resistance): 0%
MSSA; L. Amer, N=590
  MIC90: 4 µg/mL (≈ 7.21 µM)
MSSA; N America, CLSI breakpoints
  % R (resistance): 0.1%
MSSA; N America, N=2373
  MIC90: 4 µg/mL (≈ 7.21 µM)
A. baumanii; Asia/Pac, N=275
  MIC90: > 8 µg/mL
A. baumanii; Europe, N=145
  MIC90: > 8 µg/mL
A. baumanii; L. Amer, N=275
  MIC90: > 8 µg/mL
A. baumanii; N America, N=154
  MIC90: > 8 µg/mL
MRSA; Asia/Pac, Eucast breakpoints
  % R (resistance): 100%
MRSA; Asia/Pac, N=428
  MIC90: > 8 µg/mL
MRSA; Europe, Eucast breakpoints
  % R (resistance): 100%
MRSA; Europe, N=750
  MIC90: > 8 µg/mL
MRSA; L. Amer, CLSI breakpoints
  % R (resistance): 100%
MRSA; L. Amer, N=506
  MIC90: > 8 µg/mL
MRSA; N America, CLSI breakpoints
  % R (resistance): 100%
MRSA; N America, N=2508
  MIC90: > 8 µg/mL
E. faecalis VNS; Asia/Pac, N=1
  range of MICs (N <10, shown instead of MIC90): >8
E. faecalis VNS; Europe, N=8
  range of MICs (N <10, shown instead of MIC90): >8
E. faecalis VNS; L. Amer, N=7
  range of MICs (N <10, shown instead of MIC90): >8
E. faecalis VNS; N America, N=38
  MIC90: > 8 µg/mL
Acinetobacter spp; Europe, N=43
  MIC90: > 8 µg/mL
Acinetobacter spp; L. Amer
  % R (resistance): 0%
Acinetobacter spp; N America
  % R (resistance): 0%
Acinetobacter spp; N America, N=42
  MIC90: > 8 µg/mL
MS CoNS; Asia/Pac, Eucast breakpoints
  % R (resistance): 0%
MS CoNS; Asia/Pac, N=18
  MIC90: 8 µg/mL (≈ 14.4 µM)
MS CoNS; Europe, Eucast breakpoints
  % R (resistance): 0%
MS CoNS; Europe, N=185
  MIC90: 4 µg/mL (≈ 7.21 µM)
MS CoNS; L. Amer, CLSI breakpoints
  % R (resistance): 0%
MS CoNS; L. Amer, N=67
  MIC90: 4 µg/mL (≈ 7.21 µM)
MS CoNS; N America, CLSI breakpoints
  % R (resistance): 0%
MS CoNS; N America, N=191
  MIC90: 4 µg/mL (≈ 7.21 µM)
Enterobacter spp; Asia/Pac, Eucast breakpoints
  % R (resistance): 30.8%
Enterobacter spp; Asia/Pac, N=52
  MIC90: > 8 µg/mL
Enterobacter spp; Europe, Eucast breakpoints
  % R (resistance): 39%
Enterobacter spp; Europe, N=82
  MIC90: > 8 µg/mL
Enterobacter spp; L. Amer, CLSI breakpoints
  % R (resistance): 31%
Enterobacter spp; L. Amer, N=42
  MIC90: > 8 µg/mL
Enterobacter spp; N America, CLSI breakpoints
  % R (resistance): 24.8%
Enterobacter spp; N America, N=101
  MIC90: > 8 µg/mL
E. coli ESBL+; Asia/Pac, Eucast breakpoints
  % R (resistance): 99.5%
E. coli ESBL+; Asia/Pac, N=219
  MIC90: > 8 µg/mL
E. coli ESBL+; E. coli
  resistance rates for ESBL-producing clinical isolates: 95%
E. coli ESBL+; Escherichia coli, ESBL-producing E. coli, read-out: MIC90
  MIC90: > 8 µg/mL
E. coli ESBL+; Europe, Eucast breakpoints
  % R (resistance): 94.2%
E. coli ESBL+; Europe, N=274
  MIC90: > 8 µg/mL
E. coli ESBL+; L. Amer, CLSI breakpoints
  % R (resistance): 97.6%
E. coli ESBL+; L. Amer, N=168
  MIC90: > 8 µg/mL
E. coli ESBL+; N America, CLSI breakpoints
  % R (resistance): 85.8%
E. coli ESBL+; N America, N=134
  MIC90: > 8 µg/mL
